Data: US9708331B2, “Metabotrophic glutamate receptor 5 modulators and methods of use thereof” (SUNOVION PHARMACEUTICALS INC., priority 2011, dated 2017)

target: mGluR5 (Homo sapiens, UniProt P41594); experiment: mGluR5 PAM EC50 (positive allosteric modulator potency); assay type: cell-based
Sequence (P41594 21-1212): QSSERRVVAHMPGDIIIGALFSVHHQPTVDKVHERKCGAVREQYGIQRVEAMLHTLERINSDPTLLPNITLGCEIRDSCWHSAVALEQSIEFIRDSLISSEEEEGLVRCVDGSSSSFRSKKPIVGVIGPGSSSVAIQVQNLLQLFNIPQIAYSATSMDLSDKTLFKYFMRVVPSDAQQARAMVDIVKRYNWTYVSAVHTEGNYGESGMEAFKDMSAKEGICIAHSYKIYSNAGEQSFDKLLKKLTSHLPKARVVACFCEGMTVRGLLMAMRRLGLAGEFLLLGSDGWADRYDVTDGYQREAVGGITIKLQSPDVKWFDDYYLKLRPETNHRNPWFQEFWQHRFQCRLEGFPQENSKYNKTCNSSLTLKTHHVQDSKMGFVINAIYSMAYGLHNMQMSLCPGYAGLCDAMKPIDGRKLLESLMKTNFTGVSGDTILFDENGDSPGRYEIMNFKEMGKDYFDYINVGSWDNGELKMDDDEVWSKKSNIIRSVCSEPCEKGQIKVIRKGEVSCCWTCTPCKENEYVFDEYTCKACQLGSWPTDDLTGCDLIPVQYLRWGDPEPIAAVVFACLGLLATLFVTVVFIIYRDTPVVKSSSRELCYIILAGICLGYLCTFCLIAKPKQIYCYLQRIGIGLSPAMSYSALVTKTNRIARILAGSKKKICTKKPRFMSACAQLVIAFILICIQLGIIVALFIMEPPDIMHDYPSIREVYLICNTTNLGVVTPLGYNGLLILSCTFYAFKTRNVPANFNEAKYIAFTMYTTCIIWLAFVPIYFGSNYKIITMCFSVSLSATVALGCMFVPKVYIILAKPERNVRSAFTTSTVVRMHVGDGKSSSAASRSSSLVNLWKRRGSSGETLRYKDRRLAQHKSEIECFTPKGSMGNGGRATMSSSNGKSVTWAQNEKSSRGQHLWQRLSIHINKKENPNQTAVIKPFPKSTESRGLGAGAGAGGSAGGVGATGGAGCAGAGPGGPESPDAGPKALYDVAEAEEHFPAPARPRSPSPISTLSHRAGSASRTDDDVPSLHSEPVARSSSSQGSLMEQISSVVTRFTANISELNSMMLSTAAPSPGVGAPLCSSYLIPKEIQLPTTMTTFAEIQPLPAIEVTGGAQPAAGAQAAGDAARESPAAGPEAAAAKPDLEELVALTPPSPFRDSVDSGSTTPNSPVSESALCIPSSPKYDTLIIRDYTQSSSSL

Structure (SMILES)	EC50
CCC1CCCc2nc3cc(C#Cc4ccccn4)ccc3c(=O)n21 (single isomer, unassigned) [Example 2.7a]	30 to 100 nM
CC1(C)CCn2c(nc3cc(C#Cc4ccccn4)c(F)cc3c2=O)C1 [Example 2.31a, 2-fluoro-7,7-dimethyl-3-(pyridin-2-ylethynyl)-8,9-dihydro-6H-pyrido[2,1-b]quinazolin-11(7H)-one]	30 to 100 nM
O=c1c2ccc(C#Cc3ccccn3)cc2nc2n1CC1(COC1)C2 [Example 1.6, 6′-(pyridin-2-ylethynyl)-1′H-spiro[oxetane-3,2′-pyrrolo[2,1-b]quinazolin]-9′(3′H)-one]	30 to 100 nM
CCC1CCc2nc3cc(C#Cc4ccccn4)cnc3c(=O)n2CC1 (single isomer, unassigned) [Example 3.14a]	30 to 100 nM
CC1(C)CCc2nc3cc(-c4ncc(-c5ccccn5)o4)ccc3c(=O)n2C1 [Example 6.25, 8,8-dimethyl-3-(5-(pyridin-2-yl)oxazol-2-yl)-8,9-dihydro-6H-pyrido[2,1-b]quinazolin-11(7H)-one]	100 to 300 nM
CC1(F)CCCc2nc3cc(C#Cc4ccccn4)cnc3c(=O)n2C1 (stereo not shown) [Example 3.25, 9-fluoro-9-methyl-3-(pyridin-2-ylethynyl)-7,8,9,10-tetrahydropyrido[3′,2′:4,5]pyrimido [1,2-a]azepin-12(6H)-one]	100 to 300 nM
O=C(Nc1ccccn1)c1ccc2c(=O)n3c(nc2c1)CCC(F)(F)CC3 [Example 5.4, 8,8-difluoro-12-oxo-N-(pyridin-2-yl)-6,7,8,9,10,12-hexahydroazepino[2,1-b]quinazoline-3-carboxamide]	300 to 1000 nM
O=c1c2ccc(C#Cc3ccccn3)cc2nc2n1CCC(O)CC2 (single isomer, unassigned) [Example 3.2b]	30 to 100 nM
CC1(CO)CCc2nc3cc(C#Cc4ccccn4)ccc3c(=O)n2C1 (stereo not shown) [Example 2.99, 8-(hydroxymethyl)-8-methyl-3-(pyridin-2-ylethynyl)-8,9-dihydro-6H-pyrido[2,1-b]quinazolin-11(7H)-one]	30 to 100 nM
CC1(C)CCC2Cn3c(nc4cc(C#Cc5ccccn5)ccc4c3=O)CN21 (stereo not shown) [Example 2.26, 3,3-dimethyl-8-(pyridin-2-ylethynyl)-2,3,13,13a-tetrahydro-1H-pyrrolo[1′,2′:4,5] pyrazino[2,1-b]quinazolin-11(5H)-one]	100 to 300 nM
O=c1c2ccc(C#Cc3ccccn3)cc2nc2n1CCC1COCC1C2 (single isomer, unassigned) [Example 3.2f]	< 10 nM
CC1(C)CCc2nc3cc(-c4nnc(-c5ccccn5)o4)ccc3c(=O)n2C1 [Example 6.35, 8,8-dimethyl-3-(5-(pyridin-2-yl)-1,3,4-oxadiazol-2-yl)-8,9-dihydro-6H-pyrido[2,1-b]quinazolin-11(7H)-one]	100 to 300 nM
CC1CCc2nc3cc(C#Cc4ccccn4)cnc3c(=O)n2C1 (single isomer, unassigned) [Example 2.16b]	100 to 300 nM
CC1(C)CCc2nc3cc(C(=O)Nc4ccccn4)ccc3c(=O)n2C1 [Example 4.8, 8,8-dimethyl-11-oxo-N-(pyridin-2-yl)-7,8,9,11-tetrahydro-6H-pyrido[2,1-b]quinazoline-3-carboxamide]	100 to 300 nM
CC1Cc2nc3cc(C#Cc4ccccn4)cnc3c(=O)n2CCC1(F)F (single isomer, unassigned) [Example 3.31c]	30 to 100 nM
O=c1c2ccc(C#Cc3ccccn3)cc2nc2n1CC(CF)C2 (single isomer, unassigned) [Example 1.9a]	30 to 100 nM
CC1(C)CCc2nc3cc(C#Cc4ccc(F)cc4)ccc3c(=O)n2C1 [Example 2.75, 3-((4-fluorophenyl)ethynyl)-8,8-dimethyl-8,9-dihydro-6H-pyrido[2,1-b]quinazolin-11(7H)-one]	10 to 30 nM
N#Cc1ccnc(C#Cc2ccc3c(=O)n4c(nc3c2)CCCCC4)c1 [Example 3.5, 2-((12-oxo-6,7,8,9,10,12-hexahydroazepino[2,1-b]quinazolin-3-yl)ethynyl)isonicotinonitrile]	10 to 30 nM
O=c1c2ccc(C#Cc3ccccn3)cc2nc2n1CC(CF)C2 (single isomer, unassigned) [Example 1.9b]	300 to 1000 nM
CC12CCCN1CCc1nc3cc(C#Cc4ccccn4)ccc3c(=O)n1C2 (stereo not shown) [Example 3.34, 14a-methyl-9-(pyridin-2-ylethynyl)-2,3,5,6,14,14a-hexahydropyrrolo[2′,1′:3,4][1,4] diazepino[7,1-b]quinazolin-12(1H)-one]	300 to 1000 nM
CC1(C)CCc2nc3cc(COc4ccccn4)ccc3c(=O)n2C1 [Example 6.4, 8,8-dimethyl-3-((pyridin-2-yloxy)methyl)-8,9-dihydro-6H-pyrido[2,1-b]quinazolin-11(7H)-one]	100 to 300 nM
CC1(C)CCc2nc3cc(C#Cc4cncc(F)c4)ccc3c(=O)n2C1 [Example 2.89, 3-((5-fluoropyridin-3-yl)ethynyl)-8,8-dimethyl-8,9-dihydro-6H-pyrido[2,1-b]quinazolin-11(7H)-one]	< 10 nM
COCCC1Cc2nc3cc(C#Cc4ccccn4)cnc3c(=O)n2C1 (stereo not shown) [Example 1.18, 7-(2-methoxyethyl)-3-(pyridin-2-ylethynyl)-7,8-dihydropyrido[3,2-d]pyrrolo[1,2-a]pyrimidin-10(6H)-one]	300 to 1000 nM

Structure (SMILES)	EC50
Cc1cc(C#Cc2ccccn2)cc2nc3n(c(=O)c12)CCC(C)CC3 (stereo not shown) [Example 3.22, 1,8-dimethyl-3-(pyridin-2-ylethynyl)-7,8,9,10-tetrahydroazepino[2,1-b]quinazolin-12(6H)-one]	30 to 100 nM
O=c1c2ccc(C#Cc3ccccn3)cc2nc2n1CC1COCC1CC2 (single isomer, unassigned) [Example 3.2d]	30 to 100 nM
O=c1c2ccc(C#Cc3ccccn3)cc2nc2n1CCC1COCC1C2 (single isomer, unassigned) [Example 3.2e]	30 to 100 nM
CC1(C)C=Cc2nc3cc(C#Cc4ccccn4)ccc3c(=O)n2CC1 [Example 3.42, 8,8-dimethyl-3-(pyridin-2-ylethynyl)-9,10-dihydroazepino[2,1-b]quinazolin-12(8H)-one]	30 to 100 nM
CC1(C)CCc2nc3cc(C(=O)Cc4ccccn4)ccc3c(=O)n2C1 [Example 6.7, 8,8-dimethyl-3-(2-(pyridin-2-yl)acetyl)-8,9-dihydro-6H-pyrido[2,1-b]quinazolin-11(7H)-one]	30 to 100 nM
CC1(C)CCc2nc3cc(C#Cc4cccnc4F)ccc3c(=O)n2C1 [Example 2.87, 3-((2-fluoropyridin-3-yl)ethynyl)-8,8-dimethyl-8,9-dihydro-6H-pyrido[2,1-b]quinazolin-11(7H)-one]	< 10 nM
CC1CCCc2nc3cc(C#Cc4ccccn4)ccc3c(=O)n21 (single isomer, unassigned) [Example 2.3b]	< 10 nM
CC1(C)Cc2nc3c(F)c(C#Cc4ccccn4)ccc3c(=O)n2C1 [Example 1.16, 5-fluoro-2,2-dimethyl-6-(pyridin-2-ylethynyl)-2,3-dihydropyrrolo[2,1-b]quinazolin-9(1H)-one]	< 10 nM
CC1(C)CCn2c(nc3c(F)c(C#Cc4ccccn4)ccc3c2=O)C1 [Example 2.30a, 4-fluoro-7,7-dimethyl-3-(pyridin-2-ylethynyl)-8,9-dihydro-6H-pyrido[2,1-b]quinazolin-11(7H)-one]	10 to 30 nM
CC1(C)CCn2c(nc3cc(C#Cc4cccc(C#N)n4)ccc3c2=O)C1 [Example 2.24a, 6-((7,7-dimethyl-11-oxo-7,8,9,11-tetrahydro-6H-pyrido[2,1-b]quinazolin-3-yl)ethynyl)picolinonitrile]	< 10 nM
CC1(F)CCCc2nc3cc(C#Cc4ccccn4)ccc3c(=O)n2C1 (single isomer, unassigned) [Example 3.24a]	< 10 nM
Cc1cc(C#Cc2ccc3c(=O)n4c(nc3c2)CCC(C)(C)C4)sn1 [Example 2.51, 8,8-dimethyl-3-((3-methylisothiazol-5-yl)ethynyl)-8,9-dihydro-6H-pyrido[2,1-b]quinazolin-11(7H)-one]	< 10 nM
C=CC1(F)CCc2nc3cc(C#Cc4ccccn4)ccc3c(=O)n2C1 (stereo not shown) [Example 2.38, 8-fluoro-3-(pyridin-2-ylethynyl)-8-vinyl-8,9-dihydro-6H-pyrido[2,1-b]quinazolin-11(7H)-one]	10 to 30 nM
CC1(C)CCc2nc3cc(NC(=O)c4ccccn4)ccc3c(=O)n2C1 [Example 4.7, N-(8,8-dimethyl-11-oxo-7,8,9,11-tetrahydro-6H-pyrido[2,1-b]quinazolin-3-yl)picolinamide]	100 to 300 nM
O=c1c2ccc(C#Cc3ccccn3)cc2nc2n1C[C@H]1CCCN21 (stereo in doubt) [Example 1.22]	30 to 100 nM
CC1Cn2c(nc3cc(C#Cc4ccccn4)ccc3c2=O)CN1C (single isomer, unassigned) [Example 2.5a]	30 to 100 nM
CC1(C)CCc2nc3cc(C#Cc4ccncc4F)ccc3c(=O)n2C1 [Example 2.91, 3-((3-fluoropyridin-4-yl)ethynyl)-8,8-dimethyl-8,9-dihydro-6H-pyrido[2,1-b]quinazolin-11(7H)-one]	< 10 nM
O=c1c2ncc(C#Cc3ccccn3)cc2nc2n1CCCC(C(F)(F)F)C2 (stereo not shown) [Example 3.8, 3-(pyridin-2-ylethynyl)-7-(trifluoromethyl)-7,8,9,10-tetrahydropyrido[3′,2′:4,5]pyrimido [1,2-a]azepin-12(6H)-one]	30 to 100 nM
CCC1CCn2c(nc3cc(C#Cc4ccccn4)cnc3c2=O)C1 (single isomer, unassigned) [Example 2.22c]	10 to 30 nM
CC(C)(O)C1Cc2nc3cc(C#Cc4ccccn4)ccc3c(=O)n2C1 (single isomer, unassigned) [Example 1.2b]	300 to 1000 nM
CC1(C)CCc2nc3cc(-c4nc(-c5ccccn5)c[nH]4)ccc3c(=O)n2C1 [Example 6.21, 8,8-dimethyl-3-(4-(pyridin-2-yl)-1H-imidazol-2-yl)-8,9-dihydro-6H-pyrido[2,1-b]quinazolin-11(7H)-one]	300 to 1000 nM
CC1(C)CCc2nc3cc(C#Cc4cc(C#N)ccn4)ccc3c(=O)n2C1 [Example 2.25b, 2-((8,8-dimethyl-11-oxo-7,8,9,11-tetrahydro-6H-pyrido[2,1-b]quinazolin-3-yl)ethynyl)isonicotinonitrile]	< 10 nM
CC(C)(F)C1Cc2nc3cc(C#Cc4ccccn4)ccc3c(=O)n2C1 (single isomer, unassigned) [Example 1.3b]	100 to 300 nM
